The assay addresses T1, ACE from rabbit lung (Oryctolagus cuniculus, UniProt P12822).
T1 construct: ACE from rabbit lung (Sigma); purchased Sigma; host or cells: rabbit lung
T1 sequence (P12822 34-1310): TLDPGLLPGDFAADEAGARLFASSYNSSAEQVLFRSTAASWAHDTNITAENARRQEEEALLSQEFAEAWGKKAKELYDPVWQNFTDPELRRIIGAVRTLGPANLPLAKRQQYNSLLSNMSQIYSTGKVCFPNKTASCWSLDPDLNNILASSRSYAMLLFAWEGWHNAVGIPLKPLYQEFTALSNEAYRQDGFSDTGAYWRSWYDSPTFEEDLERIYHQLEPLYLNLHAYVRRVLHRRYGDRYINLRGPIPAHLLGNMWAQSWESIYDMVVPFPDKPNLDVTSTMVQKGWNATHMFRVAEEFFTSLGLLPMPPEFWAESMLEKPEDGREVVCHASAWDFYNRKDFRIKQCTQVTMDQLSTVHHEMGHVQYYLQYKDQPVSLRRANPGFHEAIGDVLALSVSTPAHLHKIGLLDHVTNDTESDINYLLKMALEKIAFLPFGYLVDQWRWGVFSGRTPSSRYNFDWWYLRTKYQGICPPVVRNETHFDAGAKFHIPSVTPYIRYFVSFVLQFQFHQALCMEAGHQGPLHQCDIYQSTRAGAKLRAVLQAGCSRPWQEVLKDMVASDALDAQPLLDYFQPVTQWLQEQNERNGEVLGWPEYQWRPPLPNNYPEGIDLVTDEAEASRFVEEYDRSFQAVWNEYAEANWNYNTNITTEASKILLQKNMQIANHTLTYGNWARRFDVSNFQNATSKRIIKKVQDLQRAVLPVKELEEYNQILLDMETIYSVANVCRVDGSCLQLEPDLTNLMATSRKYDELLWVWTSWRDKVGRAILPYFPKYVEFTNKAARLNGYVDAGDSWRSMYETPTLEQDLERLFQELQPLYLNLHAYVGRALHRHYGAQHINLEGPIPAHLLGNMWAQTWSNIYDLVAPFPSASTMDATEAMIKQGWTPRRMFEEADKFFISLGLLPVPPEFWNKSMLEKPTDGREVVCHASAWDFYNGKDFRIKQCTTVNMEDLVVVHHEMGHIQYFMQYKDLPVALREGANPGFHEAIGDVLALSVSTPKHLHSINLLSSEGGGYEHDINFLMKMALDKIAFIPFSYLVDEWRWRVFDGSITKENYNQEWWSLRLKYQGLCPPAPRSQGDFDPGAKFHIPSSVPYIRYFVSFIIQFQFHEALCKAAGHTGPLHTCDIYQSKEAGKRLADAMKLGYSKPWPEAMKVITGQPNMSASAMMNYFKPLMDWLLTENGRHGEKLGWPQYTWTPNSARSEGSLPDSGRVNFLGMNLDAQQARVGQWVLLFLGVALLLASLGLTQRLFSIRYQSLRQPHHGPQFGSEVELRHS
The assay is described as follows: ACE inhibitory activity (IC50), fluorometric Bz-Gly-His-Leu hydrolysis. The class given is biochemical. The settings on record: peptide purified from thermolysin digestion product of sesame protein; 5 μl portion of each fraction. Here is the method:
In the present invention, the ACE inhibitory activity (IC50) was measured in accordance with the following method.
5 μl of a sample containing the peptide of the invention was pipetted into a 96-well microplate. After adding 25 μl of the buffer and 10 μl of the enzyme, the mixture was thoroughly stirred and incubated at 37° C. for 5 minutes. After adding 10 μl of the substrate, the mixture was reacted at 37° C. for 30 minutes. Then the reaction was ceased by adding 40 μl of 0.1 N NaOH. […] Then the amount of His-Leu formed by the hydrolysis by ACE was determined by exciting (at 355 nm) the fluorescent substance formed by the reaction between the amino group in the histidine residue and o-phthalaldehyde and measuring the fluorescence wavelength at 460 nm. Then the percentage inhibition by the peptide of the invention was determined in accordance with the following equation and the ACE inhibitory activity (IC50) was calculated. Percentage inhibition={1−(A−a)/(B−b)}×100 • A: Measurement of fluorescence when the sample was added. • a: Measurement of fluorescence when the sample was added and the buffer was added as a substitute for the enzyme. • B: Measurement of fluorescence when distilled water was added as a substitute for the sample. • b: Measurement of fluorescence when distilled water was added as a substitute for the sample and the buffer was added as a substitute for the enzyme.

Turning to Ile-Val-Tyr, the “ACE inhibitory activity of the C30 HPLC fractions identified as the peptide” value is on record as “strong ACE inhibitory activities”.

The values are drawn from patent US7833985B2, “Angiotensin-converting enzyme inhibitory peptides” (Suntory Holdings Limited, priority 2003, dated 2010).
